Assay results from patent publication US6566408B1, “Aqueous surfactant compositions of monoalkyl phosphate ester salts and amphoteric surfactants” (Rhodia, Inc., priority 2000, dated 2003).

Test system: human subjects (skin of the back)
Assay: 14-Day Cumulative Irritation Assay (occlusive patch, comparative dermal irritation potential)
Format: in vivo
Text: In the following study, the tested solutions were at a total surfactant actives content of 0.5% by weight. […] 14-Day Cumulative Irritation Assay of the Comparitive Dermal Irritation Potential of a Series of Test Articles The objective of this study was to determine the comparative dermal irritation potential of a series of nine (9) test articles on twenty-five (25) subjects using a 14-Day Cumulative Irritation Assay. Twenty-five (25) subjects, 1 male and 24 females, ranging in age from 18 to 55 years were empaneled for this test. […] Each day during the duration of the study, patches were removed and the sites were evaluated for irritation using the 6-point scoring system outlined below. […] This procedure was repeated at each visit for a period of fourteen (14) consecutive days, excluding Sundays (Saturday's patches were worn until Monday. Monday's irritation scores were recorded as Sunday's scores and Sunday was counted as an exposure day). Patch test sites were evaluated daily and scores were recorded on a Cumulative Irritation Patch Test recording form. Individual test article scores were calculated via summation of the results for each day. […] The following day's score was “carried back” and recorded for the missed visit day. […]

Structure (SMILES): CCCCCCCCCCCCOS(=O)(=O)[O-].[Na+] [Test Article #9, Sodium lauryl sulphate]
- Total Cum. Irrit. Scores (sum of total cumulative score for 14 days, 22 subjects, highest possible 924, solutions at 0.5% total surfactant actives): 844.5
- Mean Cum. Irrit. Scores (total divided by 22 subjects, highest possible 42, 14 days, 0.5% total surfactant actives): 38.4
